Laboratory results from paper doi:10.1101/208439v1 (biorxiv, 2017).

Key:
Assay in all cases: biochemical
DNMT3a = DNMT3a (Homo sapiens, UniProt Q9Y6K1)
PRMT3 = PRMT3 (Homo sapiens, UniProt O60678)
DNMT3b/3L = DNMT3b/3L (Homo sapiens, UniProt Q9UBC3)
SMYD1 = molecular target: T1, SMYD1 (Homo sapiens, UniProt Q8NB12)
T1 sequence (Q8NB12 1-490): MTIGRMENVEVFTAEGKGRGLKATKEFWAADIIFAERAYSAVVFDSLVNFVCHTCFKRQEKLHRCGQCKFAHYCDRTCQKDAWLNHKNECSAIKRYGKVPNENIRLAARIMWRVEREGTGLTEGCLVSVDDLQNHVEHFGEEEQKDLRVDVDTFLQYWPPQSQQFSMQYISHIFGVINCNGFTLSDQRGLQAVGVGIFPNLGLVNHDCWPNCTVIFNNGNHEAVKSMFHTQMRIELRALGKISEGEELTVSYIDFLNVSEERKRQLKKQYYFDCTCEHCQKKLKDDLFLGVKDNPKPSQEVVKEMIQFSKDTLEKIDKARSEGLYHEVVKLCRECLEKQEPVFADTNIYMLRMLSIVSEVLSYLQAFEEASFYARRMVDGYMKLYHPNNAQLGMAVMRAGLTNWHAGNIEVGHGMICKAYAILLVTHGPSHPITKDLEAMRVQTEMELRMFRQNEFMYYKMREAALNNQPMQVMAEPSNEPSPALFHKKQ

GLP = molecular target: T2, GLP (Homo sapiens, UniProt Q9H9B1)
T2 construct: gene EHMT1
T2 sequence (Q9H9B1 1-1298): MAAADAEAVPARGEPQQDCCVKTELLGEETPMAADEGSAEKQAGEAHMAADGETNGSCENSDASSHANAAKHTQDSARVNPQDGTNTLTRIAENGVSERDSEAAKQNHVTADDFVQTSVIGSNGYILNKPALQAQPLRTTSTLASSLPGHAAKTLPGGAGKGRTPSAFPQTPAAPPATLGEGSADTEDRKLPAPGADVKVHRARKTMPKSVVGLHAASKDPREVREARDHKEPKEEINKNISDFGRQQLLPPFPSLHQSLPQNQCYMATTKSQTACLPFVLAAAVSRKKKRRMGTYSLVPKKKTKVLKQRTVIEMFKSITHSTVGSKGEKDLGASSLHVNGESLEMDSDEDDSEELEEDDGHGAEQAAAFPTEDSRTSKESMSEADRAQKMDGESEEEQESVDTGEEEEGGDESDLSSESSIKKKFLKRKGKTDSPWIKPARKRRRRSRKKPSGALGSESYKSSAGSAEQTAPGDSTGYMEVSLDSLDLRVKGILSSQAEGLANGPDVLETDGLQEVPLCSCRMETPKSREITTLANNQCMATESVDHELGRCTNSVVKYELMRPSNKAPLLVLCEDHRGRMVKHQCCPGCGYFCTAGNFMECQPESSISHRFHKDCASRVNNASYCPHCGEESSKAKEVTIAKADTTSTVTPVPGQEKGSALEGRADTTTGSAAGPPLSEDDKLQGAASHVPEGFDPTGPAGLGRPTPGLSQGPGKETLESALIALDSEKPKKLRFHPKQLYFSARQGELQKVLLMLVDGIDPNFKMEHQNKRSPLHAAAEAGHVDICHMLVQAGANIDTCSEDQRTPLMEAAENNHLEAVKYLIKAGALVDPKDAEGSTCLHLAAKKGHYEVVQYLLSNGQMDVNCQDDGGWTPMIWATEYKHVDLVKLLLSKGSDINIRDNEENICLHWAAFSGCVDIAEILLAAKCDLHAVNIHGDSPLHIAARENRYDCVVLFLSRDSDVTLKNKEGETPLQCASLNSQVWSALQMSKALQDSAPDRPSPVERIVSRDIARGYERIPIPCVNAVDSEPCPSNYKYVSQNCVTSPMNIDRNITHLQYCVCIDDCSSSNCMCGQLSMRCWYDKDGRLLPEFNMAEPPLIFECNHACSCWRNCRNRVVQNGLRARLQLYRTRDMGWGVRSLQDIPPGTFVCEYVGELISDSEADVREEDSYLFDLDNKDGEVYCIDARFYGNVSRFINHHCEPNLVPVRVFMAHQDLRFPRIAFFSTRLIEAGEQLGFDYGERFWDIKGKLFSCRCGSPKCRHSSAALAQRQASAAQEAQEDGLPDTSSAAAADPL

SUV39H2 = SUV39H2 (Homo sapiens, UniProt Q9H5I1)
SUV39H2, sequence (Q9H5I1 48-410): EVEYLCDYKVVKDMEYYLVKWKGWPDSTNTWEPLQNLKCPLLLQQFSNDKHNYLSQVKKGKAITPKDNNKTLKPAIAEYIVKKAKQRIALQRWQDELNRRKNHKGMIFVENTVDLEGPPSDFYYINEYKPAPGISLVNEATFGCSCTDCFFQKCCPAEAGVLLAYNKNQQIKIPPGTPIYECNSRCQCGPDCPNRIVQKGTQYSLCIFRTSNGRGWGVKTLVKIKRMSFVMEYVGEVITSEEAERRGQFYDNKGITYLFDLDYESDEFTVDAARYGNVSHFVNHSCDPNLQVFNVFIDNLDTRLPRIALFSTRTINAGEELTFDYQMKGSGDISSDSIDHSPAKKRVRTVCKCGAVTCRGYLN

SETD2 = molecular target: T3, SETD2 (Homo sapiens, UniProt Q9BYW2)
T3 sequence (Q9BYW2 1434-1711): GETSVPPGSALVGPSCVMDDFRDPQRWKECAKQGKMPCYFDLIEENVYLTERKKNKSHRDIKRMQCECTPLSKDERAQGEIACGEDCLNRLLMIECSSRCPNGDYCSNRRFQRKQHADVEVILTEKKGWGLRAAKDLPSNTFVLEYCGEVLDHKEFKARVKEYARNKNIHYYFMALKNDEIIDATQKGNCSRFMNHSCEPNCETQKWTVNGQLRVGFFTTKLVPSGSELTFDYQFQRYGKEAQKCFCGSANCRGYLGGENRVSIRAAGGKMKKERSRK

SET7/9 = molecular target: T4, SET7/9 (Homo sapiens, UniProt Q8WTS6)
T4 construct: gene SETD7
T4 sequence (Q8WTS6 1-366): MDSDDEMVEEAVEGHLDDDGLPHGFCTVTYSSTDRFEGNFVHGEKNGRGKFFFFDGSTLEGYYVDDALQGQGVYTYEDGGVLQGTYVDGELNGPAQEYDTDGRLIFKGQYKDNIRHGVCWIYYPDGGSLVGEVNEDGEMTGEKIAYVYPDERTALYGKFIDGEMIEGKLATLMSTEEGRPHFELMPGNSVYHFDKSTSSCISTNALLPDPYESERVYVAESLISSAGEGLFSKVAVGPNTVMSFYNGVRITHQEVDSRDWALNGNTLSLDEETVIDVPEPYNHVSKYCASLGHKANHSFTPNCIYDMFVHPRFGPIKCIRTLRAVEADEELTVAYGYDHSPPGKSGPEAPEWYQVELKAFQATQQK

MLL4 Complex = MLL4 Complex (Homo sapiens, UniProt Q9UMN6); design: gene KMT2B
MLL1 Complex = MLL1 Complex (Homo sapiens, UniProt Q03164); design: gene KMT2A
MLL2 Complex = MLL2 Complex (Homo sapiens, UniProt O14686); design: gene KMT2D
MLL3 Complex = MLL3 Complex (Homo sapiens, UniProt Q8NEZ4); design: gene KMT2C
SET1b Complex = SET1b Complex (Homo sapiens, UniProt Q9UPS6); design: gene SETD1B
SET1b Complex, sequence (Q9UPS6 whole entry, looked up, one chain of several): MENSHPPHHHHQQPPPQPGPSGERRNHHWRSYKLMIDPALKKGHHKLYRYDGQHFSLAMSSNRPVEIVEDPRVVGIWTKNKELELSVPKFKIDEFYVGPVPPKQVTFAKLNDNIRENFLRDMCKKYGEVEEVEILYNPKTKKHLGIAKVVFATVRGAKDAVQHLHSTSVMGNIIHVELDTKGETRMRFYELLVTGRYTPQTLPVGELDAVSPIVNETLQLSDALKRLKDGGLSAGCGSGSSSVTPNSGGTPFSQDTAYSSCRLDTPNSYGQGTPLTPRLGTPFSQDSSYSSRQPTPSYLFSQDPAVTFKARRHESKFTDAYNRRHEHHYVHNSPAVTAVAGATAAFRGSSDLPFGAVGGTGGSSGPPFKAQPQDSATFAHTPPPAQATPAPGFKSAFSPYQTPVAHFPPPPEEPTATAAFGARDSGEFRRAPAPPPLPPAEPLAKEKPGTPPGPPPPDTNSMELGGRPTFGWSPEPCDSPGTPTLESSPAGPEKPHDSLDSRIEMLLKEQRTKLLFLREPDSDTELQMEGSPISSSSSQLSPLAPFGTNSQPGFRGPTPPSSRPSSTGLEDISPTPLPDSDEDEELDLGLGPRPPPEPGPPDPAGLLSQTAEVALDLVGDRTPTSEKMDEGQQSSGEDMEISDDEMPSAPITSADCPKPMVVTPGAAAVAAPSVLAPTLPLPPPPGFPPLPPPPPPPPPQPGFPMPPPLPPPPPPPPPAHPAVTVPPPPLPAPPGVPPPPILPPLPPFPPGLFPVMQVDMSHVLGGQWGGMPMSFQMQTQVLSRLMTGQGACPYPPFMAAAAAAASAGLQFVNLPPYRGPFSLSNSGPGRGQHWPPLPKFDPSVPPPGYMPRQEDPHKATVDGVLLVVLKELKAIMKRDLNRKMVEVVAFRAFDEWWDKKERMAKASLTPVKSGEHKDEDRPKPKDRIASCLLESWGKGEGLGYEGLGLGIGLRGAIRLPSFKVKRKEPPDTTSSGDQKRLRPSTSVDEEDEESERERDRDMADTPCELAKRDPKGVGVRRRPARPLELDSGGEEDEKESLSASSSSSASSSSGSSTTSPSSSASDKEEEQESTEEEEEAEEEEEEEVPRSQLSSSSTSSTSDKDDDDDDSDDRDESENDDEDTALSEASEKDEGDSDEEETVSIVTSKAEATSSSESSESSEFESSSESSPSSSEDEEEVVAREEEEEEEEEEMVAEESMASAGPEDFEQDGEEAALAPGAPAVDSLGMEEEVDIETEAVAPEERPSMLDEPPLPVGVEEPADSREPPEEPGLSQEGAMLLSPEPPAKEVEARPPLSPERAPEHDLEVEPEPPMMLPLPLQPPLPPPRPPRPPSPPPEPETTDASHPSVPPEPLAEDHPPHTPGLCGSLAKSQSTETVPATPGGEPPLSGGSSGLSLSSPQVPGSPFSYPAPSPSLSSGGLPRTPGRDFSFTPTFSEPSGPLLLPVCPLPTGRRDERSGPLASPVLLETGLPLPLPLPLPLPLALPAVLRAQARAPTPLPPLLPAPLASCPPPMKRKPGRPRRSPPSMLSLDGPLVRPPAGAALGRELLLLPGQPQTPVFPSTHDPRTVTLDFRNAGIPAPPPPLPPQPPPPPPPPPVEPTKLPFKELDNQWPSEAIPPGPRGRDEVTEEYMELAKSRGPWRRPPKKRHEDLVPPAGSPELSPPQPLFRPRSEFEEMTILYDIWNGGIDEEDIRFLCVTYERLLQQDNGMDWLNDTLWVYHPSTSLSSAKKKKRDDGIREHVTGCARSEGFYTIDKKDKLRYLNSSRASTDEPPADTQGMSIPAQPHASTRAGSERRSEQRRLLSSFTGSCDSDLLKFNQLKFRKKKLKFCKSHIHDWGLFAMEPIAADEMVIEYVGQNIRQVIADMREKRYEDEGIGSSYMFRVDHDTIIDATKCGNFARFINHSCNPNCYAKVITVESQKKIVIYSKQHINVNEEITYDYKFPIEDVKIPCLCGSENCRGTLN

PRMT3, sequence (O60678 2-531): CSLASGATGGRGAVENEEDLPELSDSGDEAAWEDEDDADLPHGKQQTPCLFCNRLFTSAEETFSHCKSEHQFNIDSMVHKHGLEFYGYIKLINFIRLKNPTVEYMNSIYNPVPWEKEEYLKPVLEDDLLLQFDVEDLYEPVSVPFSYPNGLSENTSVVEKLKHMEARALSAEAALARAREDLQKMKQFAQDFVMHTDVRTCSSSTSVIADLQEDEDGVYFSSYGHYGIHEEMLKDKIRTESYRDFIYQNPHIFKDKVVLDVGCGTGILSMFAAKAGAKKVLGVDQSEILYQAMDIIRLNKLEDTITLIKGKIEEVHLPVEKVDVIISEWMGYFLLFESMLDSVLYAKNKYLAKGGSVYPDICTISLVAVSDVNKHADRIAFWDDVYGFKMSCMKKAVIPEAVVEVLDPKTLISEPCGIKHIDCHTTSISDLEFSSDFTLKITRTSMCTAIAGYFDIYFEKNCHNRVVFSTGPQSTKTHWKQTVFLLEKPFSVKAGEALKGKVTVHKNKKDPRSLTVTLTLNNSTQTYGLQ
DNMT3a, sequence (Q9Y6K1 whole entry, looked up): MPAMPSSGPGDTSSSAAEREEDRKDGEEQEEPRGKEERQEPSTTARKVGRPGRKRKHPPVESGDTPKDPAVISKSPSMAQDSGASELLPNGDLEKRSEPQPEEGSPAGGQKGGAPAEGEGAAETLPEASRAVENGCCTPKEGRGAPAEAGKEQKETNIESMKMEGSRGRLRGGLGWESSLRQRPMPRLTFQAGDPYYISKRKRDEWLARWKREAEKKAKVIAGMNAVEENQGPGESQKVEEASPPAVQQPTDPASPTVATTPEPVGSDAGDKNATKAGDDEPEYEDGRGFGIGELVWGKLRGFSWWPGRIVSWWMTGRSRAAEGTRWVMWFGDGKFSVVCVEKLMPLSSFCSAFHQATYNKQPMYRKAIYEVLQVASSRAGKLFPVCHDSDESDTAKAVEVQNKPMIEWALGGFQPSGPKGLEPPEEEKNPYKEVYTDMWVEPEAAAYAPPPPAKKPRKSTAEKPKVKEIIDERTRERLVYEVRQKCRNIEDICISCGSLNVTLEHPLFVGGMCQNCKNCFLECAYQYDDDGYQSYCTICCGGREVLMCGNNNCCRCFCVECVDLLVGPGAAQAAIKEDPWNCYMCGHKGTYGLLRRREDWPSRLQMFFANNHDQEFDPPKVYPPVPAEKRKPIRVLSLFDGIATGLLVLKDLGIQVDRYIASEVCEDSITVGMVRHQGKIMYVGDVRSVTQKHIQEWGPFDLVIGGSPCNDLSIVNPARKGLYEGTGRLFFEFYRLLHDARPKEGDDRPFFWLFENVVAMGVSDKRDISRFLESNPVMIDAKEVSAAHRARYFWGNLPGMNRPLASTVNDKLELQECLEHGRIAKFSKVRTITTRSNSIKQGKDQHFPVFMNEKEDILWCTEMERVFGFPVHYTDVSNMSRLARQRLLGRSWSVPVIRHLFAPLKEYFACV

For Nc1ncnc2c1ncn2[C@@H]1O[C@H](CSCC[C@H](N)C(=O)O)[C@@H](O)[C@H]1O [SAH], the IC50 (DNMT3a) was 0.12 µM, the IC50 (PRMT3) was 2.3 µM and the IC50 (DNMT3b/3L) was 0.012 µM. It also gave an IC50 (SMYD1) of 37 µM, an IC50 (GLP) of 0.53 µM and an IC50 (SUV39H2) of 55 µM. For the same compound, the IC50 (SETD2) was 5.2 µM, the IC50 (SET7/9) was 83 µM and the IC50 (MLL4 Complex) was 2.5 µM. For the same compound, the IC50 (MLL1 Complex) was 0.55 µM, the IC50 (MLL2 Complex) was 27 µM and the IC50 (MLL3 Complex) was 57 µM. It also gave an IC50 (SET1b Complex) of 1.5 µM.
